This note sets out measurements from patent US9809640B2, “ApoE peptide dimers and uses thereof” (priority 2010, dated 2017).

Where two headings read alike, the source gives them in different places. Non-standard residues stand in square brackets, D forms with d. Residues, ends and D or L forms follow the SMILES beside them. No end group written: not given here. Aib = CC(C)(N)C(=O)O Bounds are passed on as bounds.

Series [1] in a line: Mouse toxicity, maximum tolerated dose by intravenous injection. The following applies: in vivo, maximum dose by intravenous injection without deaths after 24 hrs. The text has this: (§1) We also evaluated the various peptides for efficacy in suppressing nitric oxide production induced by LPS stimulation of BV2 microglia cells as a measure of anti-inflammatory activity as well as the maximum dose tolerated in mice (Table I and FIG. 6A). For the LPS assay, EC50 is the concentration of compound that caused a 50% suppression of nitric oxide release from BV2 cells following LPS stimulation. For mouse toxicity, MTD is the maximum dose of the compound that can be given by intravenous injection without causing deaths after 24 hrs. […] Coupling the ApoE domain to a protein transduction domain further enhanced the potency of the dimers.

The next series concerns U87MG glioblastoma cells. The series is classed as cell-based. The following applies: MTT. Here is the method:
FIG. 14A: Dose response curve of COG445 on proliferation of U87 (open circles) and MDA-MB-231 (filled circles) cells as measured by MTT reduction. FIG. 14B: Dose response curve of COG445 on proliferation of MDA-MB-231 cells as measured by cell count.
To determine whether ApoE peptide dimers were cytotoxic to other types of cancer, we evaluated the effect of three different ApoE BMOE-linked peptide dimers (COG449, COG492, COG493; see Table I) on the growth characteristics of U87MG glioblastoma cells. Various concentrations of COG449, COG492, COG493 or Sorafenib were used to treat U87MG glioblastoma cells and viable cells were quanititated using MTT. Sorafenib, which has previously been reported to be cytotoxic to glioblastoma cells (Yang et al. (2010) Mol Cancer Ther., Vol. 9(4):953-962), was used as a positive control.
Because COG445 inhibited Akt activation and downstream signaling, we examined the effects of COG445 on cellular proliferation. Adherent MB231 and U87 cells were grown for ˜24 hours in the presence of COG445 and cellular proliferation was measured by MTT reduction. […] Furthermore, COG445 inhibited MB231 cellular proliferation as determined by cell count (FIG. 14B). Approximately 6×10^4 cells were plated in growth media (RPMI+10% FBS) for 24-hours with increasing concentrations of COG445. […] However at concentrations ≧1 μM COG445, there appears to be a loss of cells. This is partially explained by decreased proliferation, although it is possible that the rate of cellular degradation was increased in the presence of COG445.

The next series has as its system BV2 microglia cells. Put plainly: LPS-induced nitric oxide production in BV2 microglia cells. Format: cell-based. The following applies: 50% suppression of nitric oxide release from BV2 cells following LPS stimulation. Here is the method: FIG. 1. COG 112 inhibits LPS-induced production of inflammatory cytokines in BV2 microglia cells. Inhibition curves for COG112 in the production of NO (green squares), TNFα (red diamonds), and IL-6 (blue triangles) by BV2 microglia. Compounds were added to the final concentrations indicated on the graph along with 100 ng/mL of LPS. After 24 hours the media was removed and assayed by two-site ELISA (BioSource) and quantitated relative to a standard curve on the same plate.
FIG. 3. NO Inhibition curve for COG449. BV2 microglia were treated with COG449 at the final concentrations indicated on the graph, along with 100 ng/mL of LPS. After 24 hours the media was removed and assayed by two-site ELISA (BioSource) and quantitated relative to a standard curve on the same plate.
as §1
Low passage BV2 microglial cell cultures are maintained in 10% HI (Heat Inactivated) FBS DMEM media (supplemented with MEM NEAA (Non-Essential Amino Acids), sodium pyruvate and Pen-Strep) and continuously cultured until needed. To determine the IC50 values for NO production, peptides are added to BV2 cultures in 1% HI FBS DMEM media (supplemented with MEM NEAA and sodium pyruvate) at a range of final assay concentrations from 1.0 μM in 2 fold dilutions to 7.8 nM followed immediately by addition of LPS (100 ng/mL final concentration) as previously described (Laskowitz et al. (2001) Exp Neurol, Vol. 167(1): 74-85). After incubating for 18±1 hours, conditioned media is removed for analysis of nitrite (the stable oxidation product of released nitric oxide) by the Griess colorimetric assay (Promega). Remaining cells are assayed for viability in an MTT assay (Promega) and the nitrite assay values are normalized for each concentration using the percent viability of cells in the MTT assay. […] Typically, the absence of LPS exposure to BV2 cells results in levels below the limit of detection in our assays. Similarly, addition of any of the peptides up to 25 μM without LPS results in undetectable NO levels.

Another series relates to B-CLL cells. Put plainly: Cytotoxicity on patient-derived B-CLL cells (MTS assay). The following applies: for Fold Change: CLL EC50 relative to COG056 (rev133) = 1.0. The text has this: FIG. 5A: Dose response curves for COG449 cytotoxicity on CLL cells from 4 leukemia patients. Human CLL cells were isolated from blood samples and assayed for COG449 cytotoxicity. […] FIG. 5B: Dose response curves for COG445 on CLL cells from 7 patients or normal B-cells from 5 patients. Human CLL cells and PBMC were isolated and assayed for cytotoxicity of COG445.
Blood from CLL patients was collected and CD5+/CD19+ CLL cells were isolated using the RosetteSep™ Human B-Cell Enrichment Cocktail, according to the manufacturer's instructions, and treated with COG compounds. Compounds were applied to B-CLL cells (2.5×10^5 cells/well in a 96 well plate), after which the cells were treated for 72 hours.
Normal B-cells from volunteers and B-CLL cells from patients are isolated using the RosetteSep™ Human B Cell Enrichment Cocktail according to the manufacturer's instructions. This method depletes whole blood of T cells, monocytes, and NK cells using a proprietary antibody cocktail that cross-links unwanted cells in human whole blood to multiple red blood cells (RBCs) forming immunorosettes. This increases the density of the unwanted (rosetted) cells, such that they pellet along with the free RBCs when centrifuged over a buoyant density medium such as Ficoll-Paque®. This leaves the highly enriched B-cell or B-CLL cells at the interface between Ficoll and the plasma. The antibodies in the cocktail contain […] and anti-CD16 antibodies to remove T cells, monocytes, and NK cells, respectively. The purity of these B-cell and B-CLL preparations is then determined by flow cytometry.
For cytotoxicity assays, 3×10^6 CLL cells/well are cultured in 24 well tissue culture plates in 1.5 mL of Hybridoma SFM™ (Gibco, Long Island, N.Y.) as described by Levesque et al. (2001, 2003). All cultures are incubated at 37° C., 5% CO2 in air.

The next series concerns normal B-cells. In words: Cytotoxicity on normal B-cells from volunteers. Format: cell-based, human. The following applies: normal B-cells from volunteers.
The mark [2] stands for this setting: read-out: CLL EC50, B-CLL cells from patients, 72 hours, MTS assay.

The compound `CC(=O)N[C@@H](CSC1CC(=O)N(CCN2C(=O)CC(SC[C@H](NC(C)=O)C(=O)N[C@@H](CC(C)C)C(=O)N[C@@H](CCCNC(=N)N)C(=O)N[C@H](C(=O)N[C@@H](CCCNC(=N)N)C(=O)N[C@@H](CC(C)C)C(=O)N[C@@H](C)C(=O)N[C@@H](CO)C(=O)N[C@@H](Cc3c[nH]cn3)C(=O)N[C@@H](CC(C)C)C(=O)N[C@@H](CCCNC(=N)N)C(=O)N[C@@H](CCCCN)C(=O)N[C@@H](CC(C)C)C(=O)N[C@@H](CCCNC(=N)N)C(=O)N[C@@H](CCCCN)C(=O)N[C@@H](CCCNC(=N)N)C(=O)N[C@@H](CC(C)C)C(=O)N[C@@H](CC(C)C)C(N)=O)C(C)C)C2=O)C1=O)C(=O)N[C@@H](CC(C)C)C(=O)N[C@@H](CCCNC(=N)N)C(=O)N[C@H](C(=O)N[C@@H](CCCNC(=N)N)C(=O)N[C@@H](CC(C)C)C(=O)N[C@@H](C)C(=O)N[C@@H](CO)C(=O)N[C@@H](Cc1c[nH]cn1)C(=O)N[C@@H](CC(C)C)C(=O)N[C@@H](CCCNC(=N)N)C(=O)N[C@@H](CCCCN)C(=O)N[C@@H](CC(C)C)C(=O)N[C@@H](CCCNC(=N)N)C(=O)N[C@@H](CCCCN)C(=O)N[C@@H](CCCNC(=N)N)C(=O)N[C@@H](CC(C)C)C(=O)N[C@@H](CC(C)C)C(N)=O)C(C)C` (some centres unmarked) [COG492, C-LRVRLASHLRKLRKRLL (SEQ ID NO: 15) <BMOE> C-LRVRLASHLRKLRKRLL (SEQ ID NO: 15)] had an MTD at 24 h in series [1] of 25 mg/kg. Besides, in the series on U87MG glioblastoma cells, the “cytotoxicity to U87MG cells” value is listed as “cytotoxic”.

Turning to `CC(C)C[C@H](NC(=O)[C@H](CC(C)C)NC(=O)[C@H](CCCNC(=N)N)NC(=O)[C@H](CCCCN)NC(=O)C(C)(C)NC(=O)[C@H](CC(C)C)NC(=O)[C@H](CCCCN)NC(=O)[C@H](CCCNC(=N)N)NC(=O)[C@H](CC(C)C)NC(=O)C(C)(C)NC(=O)[C@H](CO)NC(=O)[C@H](C)NC(=O)[C@H](CS)NC(=O)[C@H](CCCNC(=N)N)NC(=O)[C@H](CCCNC(=N)N)NC(=O)[C@H](CCCNC(=N)N)NC(=O)[C@H](CCC(N)=O)NC(=O)[C@H](CCCNC(=N)N)NC(=O)[C@H](CCCNC(=N)N)NC(=O)[C@H](CCCCN)NC(=O)[C@H](CCCCN)NC(=O)[C@H](CCCNC(=N)N)NC(=O)CNC(=O)[C@@H](N)Cc1ccc(O)cc1)C(=O)O` [COG226, YGRKKRRQRRR-C-AS(Aib)LRKL(Aib)KRLL (SEQ ID NO: 6)] (H-YGRKKRRQRRRCAS[Aib]LRKL[Aib]KRLL-OH), the values for the EC50 in the series on BV2 microglia cells and in the series with B-CLL cells (setting [2]) were under 1000 nM and 1400 nM, respectively. In addition, the “Fold Change” value with B-CLL cells is listed as 9.2.

Consider “LLRKRLKRLHSALRVRL [COG056, LLRKRLKRLHSALRVRL (SEQ ID NO: 2), reference compound]”, for which the EC50 in the series on BV2 microglia cells is over 20000 nM; in the series with B-CLL cells (setting [2]), 12900 nM. The “Fold Change” value in the series with B-CLL cells is listed as 1.0.

In the case of `CC[C@H](C)[C@H](NC(=O)[C@H](CCCCN)NC(=O)[C@@H](NC(=O)[C@H](CCC(N)=O)NC(=O)[C@@H](N)CCCNC(=N)N)[C@@H](C)CC)C(=O)N[C@@H](Cc1c[nH]c2ccccc12)C(=O)N[C@@H](Cc1ccccc1)C(=O)N[C@@H](CCC(N)=O)C(=O)N[C@@H](CC(N)=O)C(=O)N[C@@H](CCCNC(=N)N)C(=O)N[C@@H](CCCNC(=N)N)C(=O)N[C@@H](CCSC)C(=O)N[C@@H](CCCCN)C(=O)N[C@@H](Cc1c[nH]c2ccccc12)C(=O)N[C@@H](CCCCN)C(=O)N[C@@H](CCCCN)C(=O)N[C@@H](CS)C(=O)N[C@@H](C)C(=O)N[C@@H](CO)C(=O)NC(C)(C)C(=O)N[C@@H](CC(C)C)C(=O)N[C@@H](CCCNC(=N)N)C(=O)N[C@@H](CCCCN)C(=O)N[C@@H](CC(C)C)C(=O)NC(C)(C)C(=O)N[C@@H](CCCCN)C(=O)N[C@@H](CCCNC(=N)N)C(=O)N[C@@H](CC(C)C)C(=O)N[C@@H](CC(C)C)C(=O)O` [COG120, RQIKIWFQNRRMKWKK-C-AS(Aib)LRKL(Aib)KRLL (SEQ ID NO: 7)] (H-RQIKIWFQNRRMKWKKCAS[Aib]LRKL[Aib]KRLL-OH; N-terminus and C-terminus assumed), the results for the EC50 with BV2 microglia cells and in the series with B-CLL cells (setting [2]) were under 1000 nM and 1000 nM, respectively. In addition, the “Fold Change” value in the series on B-CLL cells is given as 12.6.

For `CC(=O)N[C@@H](CC(C)C)C(=O)N[C@@H](CCCNC(=N)N)C(=O)N[C@H](C(=O)N[C@@H](CCCNC(=N)N)C(=O)N[C@@H](CC(C)C)C(=O)N[C@@H](C)C(=O)N[C@@H](CO)C(=O)N[C@@H](Cc1c[nH]cn1)C(=O)N[C@@H](CC(C)C)C(=O)N[C@@H](CCCNC(=N)N)C(=O)N[C@@H](CCCCN)C(=O)N[C@@H](CC(C)C)C(=O)N[C@@H](CCCNC(=N)N)C(=O)N[C@@H](CCCCN)C(=O)N[C@@H](CCCNC(=N)N)C(=O)N[C@@H](CC(C)C)C(=O)N[C@@H](CC(C)C)C(N)=O)C(C)C` [COG133, LRVRLASHLRKLRKRLL (SEQ ID NO: 3)], the EC50 with B-CLL cells (read-out: ED50 cytotoxic potency (text, Table I), CLL cells) is 4400 ± 1500 nM; in the series with normal B-cells, over 20 µM. In addition, the maximal tolerated dose (MTD) at 24 h in series [1] is 16 mg/kg.
